Experimental data reported in patent US7981867B2, “Use of des-aspartate-angiotensin I” (priority 2005, dated 2011).
Where two headings read alike, the source gives them in different places. Marks after values point to notes of the source that are not given here.

System: Influenza A/Aichi/2/68 virus
Assay type: in vivo, BALB/c mice

Substance: des-aspartate-angiotensin I (RVYIHPFHL; Angiotensin-1; UniProt P01019 26-34, looked up, fragment) [endogenous angiotensin peptide derived from angiotensin I by a specific aminopeptidase; purchased from Bachem]
- Average Percentage Weight Change (oral 300 nmole/kg/day for 16 days (n = 5), post infection day 0 (taken as 100%)): 100%
- Average Percentage Weight Change (oral 300 nmole/kg/day for 16 days (n = 5), post infection day 1): 102.1 ± 1.5%
- Average Percentage Weight Change (oral 300 nmole/kg/day for 16 days (n = 5), post infection day 2): 96.2 ± 2.0%
- Average Percentage Weight Change (oral 300 nmole/kg/day for 16 days (n = 5), post infection day 3): 90.8 ± 2.4%
- Average Percentage Weight Change (oral 300 nmole/kg/day for 16 days (n = 5), post infection day 4): 85.8 ± 2.9%
- Average Percentage Weight Change (oral 300 nmole/kg/day for 16 days (n = 5), post infection day 5): 83.2 ± 3.4%
- number of animals that died on the day of recording (oral 300 nmole/kg/day for 16 days (n = 5), post infection day 6): 3
- Average Percentage Weight Change (oral 300 nmole/kg/day for 16 days (n = 5), post infection day 6, two surviving mice, no SEM): 94.1%
- Average Percentage Weight Change (oral 300 nmole/kg/day for 16 days (n = 5), post infection day 7, two surviving mice, no SEM): 95.7^# %
- Average Percentage Weight Change (oral 300 nmole/kg/day for 16 days (n = 5), post infection day 8, two surviving mice, no SEM): 97.9^# %
- Average Percentage Weight Change (oral 300 nmole/kg/day for 16 days (n = 5), post infection day 9, two surviving mice, no SEM): 98.7^# %
- Average Percentage Weight Change (oral 300 nmole/kg/day for 16 days (n = 5), post infection day 10, two surviving mice, no SEM): 98.1^# %
- Average Percentage Weight Change (oral 300 nmole/kg/day for 16 days (n = 5), post infection day 11, two surviving mice, no SEM): 97.4^# %
- Average Percentage Weight Change (oral 300 nmole/kg/day for 16 days (n = 5), post infection day 12, two surviving mice, no SEM): 96.9^# %
- Average Percentage Weight Change (oral 300 nmole/kg/day for 16 days (n = 5), post infection day 13, two surviving mice, no SEM): 96.8^# %
- Average Percentage Weight Change (oral 300 nmole/kg/day for 16 days (n = 5), post infection day 14, two surviving mice, no SEM): 98.2^# %
- Average Percentage Weight Change (oral 300 nmole/kg/day for 16 days (n = 5), post infection day 15, two surviving mice, no SEM): 99.6^# %
- Average Percentage Weight Change (oral 300 nmole/kg/day for 16 days (n = 5), post infection day 16, two surviving mice, no SEM): 102.4^# %
- antiviral activity (attenuation of weight loss, survival) (oral 600 nmole/kg administered daily for 8 days): Effective antiviral activity
- Average Percentage Weight Change (oral 600 nmole/kg/day for 16 days (n = 9), post infection day 0 (taken as 100%)): 100%
- Average Percentage Weight Change (oral 600 nmole/kg/day for 16 days (n = 9), post infection day 1): 98.7 ± 1.3%
- Average Percentage Weight Change (oral 600 nmole/kg/day for 16 days (n = 9), post infection day 2): 95.8 ± 1.4%
- Average Percentage Weight Change (oral 600 nmole/kg/day for 16 days (n = 9), post infection day 3): 92.0 ± 1.7%
- Average Percentage Weight Change (oral 600 nmole/kg/day for 16 days (n = 9), post infection day 4): 92.4 ± 1.8 %
- Average Percentage Weight Change (oral 600 nmole/kg/day for 16 days (n = 9), post infection day 5): 94.8 ± 1.8 %
- Average Percentage Weight Change (oral 600 nmole/kg/day for 16 days (n = 9), post infection day 6): 95.5 ± 2.1 %
- Average Percentage Weight Change (oral 600 nmole/kg/day for 16 days (n = 9), post infection day 7): 97.8 ± 2.6 %
- Average Percentage Weight Change (oral 600 nmole/kg/day for 16 days (n = 9), post infection day 8): 96.7 ± 2.9%
- Average Percentage Weight Change (oral 600 nmole/kg/day for 16 days (n = 9), post infection day 9): 96.3 ± 3.5%
- Average Percentage Weight Change (oral 600 nmole/kg/day for 16 days (n = 9), post infection day 10): 95.6 ± 4.0%
- Average Percentage Weight Change (oral 600 nmole/kg/day for 16 days (n = 9), post infection day 11): 95.4 ± 4.5%
- Average Percentage Weight Change (oral 600 nmole/kg/day for 16 days (n = 9), post infection day 12): 95.1 ± 5.0%
- Average Percentage Weight Change (oral 600 nmole/kg/day for 16 days (n = 9), post infection day 13): 95.5 ± 5.2%
- Average Percentage Weight Change (oral 600 nmole/kg/day for 16 days (n = 9), post infection day 14): 99.1 ± 3.4%
- Average Percentage Weight Change (oral 600 nmole/kg/day for 16 days (n = 9), post infection day 15): 100.3 ± 4.2%
- Average Percentage Weight Change (oral 600 nmole/kg/day for 16 days (n = 9), post infection day 16): 97.0 ± 4.8%
- Average Percentage Weight Change (oral 1200 nmole/kg given as a single dose on Day 2 (n = 9), post infection day 0 (taken as 100%)): 100%
- Average Percentage Weight Change (oral 1200 nmole/kg given as a single dose on Day 2 (n = 9), post infection day 1): 103.5 ± 0.5%
- Average Percentage Weight Change (oral 1200 nmole/kg given as a single dose on Day 2 (n = 9), post infection day 2): 96.8 ± 0.6%
- Average Percentage Weight Change (oral 1200 nmole/kg given as a single dose on Day 2 (n = 9), post infection day 3): 95.1 ± 0.8 %
- Average Percentage Weight Change (oral 1200 nmole/kg given as a single dose on Day 2 (n = 9), post infection day 4): 96.7 ± 1.2 %
- Average Percentage Weight Change (oral 1200 nmole/kg given as a single dose on Day 2 (n = 9), post infection day 5): 96.3 ± 2.1 %
